Experimental data published in patent publication US11617777B2, “Cytotoxic and anti-mitotic compounds, and methods of using the same” (ZYMEWORKS BC INC., priority 2013, dated 2023).

Each molecule was assayed on Jurkat cells (assay: Cytotoxicity of compounds, CellTiter-Glo). Conditions: Homo sapiens, Jurkat, Table 3; Cytotoxicity of Compounds on Jurkat Cells; read-out: EC50.
Format: cell-based, Human
Excerpt: Cell lines used: Human T-cell leukemia cell line Jurkat (ATCC: TIB-152); HCC1954 (ATCC: CRL. 2338); Human Pancreatic cells lines: AsPC-1 (ATCC: CRL-1682), BxPC-3 (ATCC: CRL.1687), HPAF-II (ATCC: CRL.1997), MiaPaCa2 (ATCC: CRL.1420), PANC-1 (ATCC: CRL.1469), Capan-1 (ATCC: HTB-79), Capan-2 (ATCC: HTB-80) and the Human gastric carcinoma cell line NCI-N87 (ATCC: CRL. 5822); AML-193 (ATCC: CRL.9589), CCRF-CEM (ATCC: CCL-119), DU145 (ATCC: HTB-81), PC-3 (ATCC: CRL.1435), A-431 (ATCC: CRL.1555), HT-29 (ATCC: HTB-38), A-172 (ATCC: CRL.1620), NCI-H358 (ATCC: CRL.5807), A549 (ATCC: CCL-185), Colo-205 (ATCC: CCL-222), MDA-MB-231 (ATCC: HTB-26), OVCAR-3 (ATCC: HTB-161), OV-90 (ATCC: CRL.11732), OE19 (Sigma: 96071721), RT 112/84 (Sigma: 85061106).
On the day prior to adding compounds, HCC1954 AsPC-1, BxPC-3, HPAF-II, MiaPaCa2, PANC-1, Capan-1, Capan-2 and NCI-N87 cells were added to opaque-walled 96-well tissue culture-treated microtiter plates using complete growth medium at a density of 2500 cells/100 microlitre (uL) of medium. These adherant cell lines cells were incubated for one night at 37° C./5% CO2 to allow the cells to attach to the microtiter plate surface. On the day that compounds were added, Jurkat cells are added to separate 96-well microtiter plates at 2500 cells/100 uL using the same growth medium as HCC1954. Compound were first serially diluted using dimethyl sulfoxide, and then the prepared dilutions are added to complete growth medium at five-times the final concentration—compounds were then titrated 1:3, eight steps. A control with no compound (growth medium alone) was included on each microtiter plate in sextuplicate. The prepared compounds titrations were added (twenty-five uL/well) in triplicate. The cells and compound titrations were incubated at 37° C./5% CO2 for three nights. After the incubation, cell viability is measured using CellTiter-Glo® reagent by adding thirty uL of prepared CellTiter-Glo® to each assay well. The assay is incubated for at least twenty minutes in the dark prior to measuring emitted luminescence using a microplate luminometer (500 ms integration time). The collected relative luminescence units (RLU) are converted to % cytotoxicity using the Growth medium alone control mentioned above (% Cytotoxicity=1−[Well RLU/average medium alone control RLU]).
GraphPad Prism was used for generation of EC50 values using three parameter non-linear regression curve fitting.

| Compound | EC50 [nM] |
| --- | --- |
| CN[C@H](C(=O)N[C@H](C(=O)N1CCCCC1C=C(C)C(=O)NS(=O)(=O)c1ccc(CS)cc1)C(C)(C)C)C(C)(C)c1ccccc1 (mixture of isomers) [Compound 118, (S)—N—((S)-1-(2-(3-(4-(mercaptomethyl)phenylsulfonamido)-2-methyl-3-oxoprop-1-enyl)piperidin-1-yl)-3,3-dimethyl-1-oxobutan-2-yl)-3-methyl-2-(methylamino)-3-phenylbutanamide] | 13 |
| CN[C@H](C(=O)N[C@H](C(=O)N(C)[C@H](/C=C(\C)C(=O)NS(=O)(=O)c1c(C)cc(C)cc1C)C(C)C)C(C)(C)C)C(C)(C)c1ccccc1 [Compound 12, (S,E)-N-(mesitylsulfonyl)-2,5-dimethyl-4-((S)—N,3,3-trimethyl-2-((S)-3-methyl-2-(methylamino)-3-phenylbutanamido)butanamido)hex-2-enamide] | 0.03 |
| CN[C@H](C(=O)N[C@H](C(=O)N(C)[C@H](/C=C(\C)C(=O)NS(=O)(=O)c1ccc(OC(F)(F)F)cc1)C(C)C)C(C)(C)C)C(C)(C)c1ccccc1 [Compound 13, (S,E)-2,5-dimethyl-N-(4-(trifluoromethoxy)phenylsulfonyl)-4-((S)—N,3,3-trimethyl-2-((S)-3-methyl-2-(methylamino)-3-phenylbutanamido)butanamido)hex-2-enamide] | 0.038 |
| CN[C@H](C(=O)N[C@H](C(=O)N(C)[C@H](/C=C(\C)C(=O)NS(=O)(=O)c1c(C(C)C)cc(C(C)C)cc1C(C)C)C(C)C)C(C)(C)C)C(C)(C)c1ccccc1 [Compound 15, (S,E)-2,5-dimethyl-N-(2,4,6-triisopropylphenylsulfonyl)-4-((S)—N,3,3-trimethyl-2-((S)-3-methyl-2-(methylamino)-3-phenylbutanamido)butanamido)hex-2-enamide] | 7.6 |
| CN[C@H](C(=O)N[C@H](C(=O)N(C)[C@H](/C=C(\C)C(=O)NS(=O)(=O)c1ccc(C(C)(C)C)cc1)C(C)C)C(C)(C)C)C(C)(C)c1ccccc1 [Compound 16, (S,E)-N-(4-tert-butylphenylsulfonyl)-2,5-dimethyl-4-((S)—N,3,3-trimethyl-2-((S)-3-methyl-2-(methylamino)-3-phenylbutanamido)butanamido)hex-2-enamide] | 0.041 |
| CN[C@H](C(=O)N[C@H](C(=O)N(C)[C@H](/C=C(\C)C(=O)NS(=O)(=O)c1ccc(Cl)cc1)C(C)C)C(C)(C)C)C(C)(C)c1ccccc1 [Compound 17, (S,E)-N-(4-chlorophenylsulfonyl)-2,5-dimethyl-4-((S)—N,3,3-trimethyl-2-((S)-3-methyl-2-(methylamino)-3-phenylbutanamido)butanamido)hex-2-enamide] | 0.325 |
| CN[C@H](C(=O)N[C@H](C(=O)N(C)[C@H](/C=C(\C)C(=O)NS(=O)(=O)c1cccc(C#N)c1)C(C)C)C(C)(C)C)C(C)(C)c1ccccc1 [Compound 18, (S,E)-N-(3-cyanophenylsulfonyl)-2,5-dimethyl-4-((S)—N,3,3-trimethyl-2-((S)-3-methyl-2-(methylamino)-3-phenylbutanamido)butanamido)hex-2-enamide] | 1.36 |
| CN[C@H](C(=O)N[C@H](C(=O)N(C)[C@H](/C=C(\C)C(=O)NS(=O)(=O)c1ccccc1[N+](=O)[O-])C(C)C)C(C)(C)C)C(C)(C)c1ccccc1 [Compound 19, (S,E)-2,5-dimethyl-N-(2-nitrophenylsulfonyl)-4-((S)—N,3,3-trimethyl-2-((S)-3-methyl-2-(methylamino)-3-phenylbutanamido)butanamido)hex-2-enamide] | 0.152 |
| CN[C@H](C(=O)N[C@H](C(=O)N(C)[C@H](/C=C(\C)C(=O)NS(=O)(=O)c1ccccc1)C(C)C)C(C)(C)C)C(C)(C)c1ccccc1 [Compound 25, (S,E)-2,5-dimethyl-N-(phenylsulfonyl)-4-((S)—N,3,3-trimethyl-2-((S)-3-methyl-2-(methylamino)-3-phenylbutanamido)butanamido)hex-2-enamide] | 0.05 |
| CN[C@H](C(=O)N[C@H](C(=O)N(C)[C@H](/C=C(\C)C(=O)NS(=O)(=O)NCc1ccccc1F)C(C)C)C(C)(C)C)C(C)(C)c1ccccc1 [Compound 26, (S,E)-N—(N-(2-fluorobenzyl)sulfamoyl)-2,5-dimethyl-4-((S)—N,3,3-trimethyl-2-((S)-3-methyl-2-(methylamino)-3-phenylbutanamido)butanamido)hex-2-enamide] | 0.105 |
| CN[C@H](C(=O)N[C@H](C(=O)N(C)[C@H](/C=C(\C)C(=O)NS(=O)(=O)N1CCCCC1)C(C)C)C(C)(C)C)C(C)(C)c1ccccc1 [Compound 27, (S,E)-2,5-dimethyl-N-(piperidin-1-ylsulfonyl)-4-((S)—N,3,3-trimethyl-2-((S)-3-methyl-2-(methylamino)-3-phenylbutanamido)butanamido)hex-2-enamide] | 0.157 |
| CN[C@H](C(=O)N[C@H](C(=O)N(C)[C@H](/C=C(\C)C(=O)NS(=O)(=O)c1ccc(Br)cc1)C(C)C)C(C)(C)C)C(C)(C)c1ccccc1 [Compound 29, (S,E)-N-(4-bromophenylsulfonyl)-2,5-dimethyl-4-((S)—N,3,3-trimethyl-2-((S)-3-methyl-2-(methylamino)-3-phenylbutanamido)butanamido)hex-2-enamide] | 0.121 |
| CN[C@H](C(=O)N[C@H](C(=O)N(C)[C@H](/C=C(\C)C(=O)NS(=O)(=O)c1ccc2ccccc2c1)C(C)C)C(C)(C)C)C(C)(C)c1ccccc1 [Compound 30, (S,E)-2,5-dimethyl-N-(naphthalen-2-ylsulfonyl)-4-((S)—N,3,3-trimethyl-2-((S)-3-methyl-2-(methylamino)-3-phenylbutanamido)butanamido)hex-2-enamide] | 0.109 |
| CN[C@H](C(=O)N[C@H](C(=O)N(C)[C@H](/C=C(\C)C(=O)NS(=O)(=O)NCc1ccccc1C(F)(F)F)C(C)C)C(C)(C)C)C(C)(C)c1ccccc1 [Compound 32, (S,E)-2,5-dimethyl-N—(N-(2-(trifluoromethyl)benzyl)sulfamoyl)-4-((S)—N,3,3-trimethyl-2-((S)-3-methyl-2-(methylamino)-3-phenylbutanamido)butanamido)hex-2-enamide] | 0.265 |
| CN[C@H](C(=O)N[C@H](C(=O)N(C)[C@H](/C=C(\C)C(=O)NS(=O)(=O)CCOC)C(C)C)C(C)(C)C)C(C)(C)c1ccccc1 [Compound 34, (S,E)-N-(2-methoxyethylsulfonyl)-2,5-dimethyl-4-((S)—N,3,3-trimethyl-2-((S)-3-methyl-2-(methylamino)-3-phenylbutanamido)butanamido)hex-2-enamide] | 0.2 |
| CN[C@H](C(=O)N[C@H](C(=O)N(C)[C@H](/C=C(\C)C(=O)NS(=O)(=O)Cc1ccccc1)C(C)C)C(C)(C)C)C(C)(C)c1ccc(N=[N+]=[N-])cc1 [Compound 42, (S,E)-4-((S)-2-((S)-3-(4-azidophenyl)-3-methyl-2-(methylamino)butanamido)-N,3,3-trimethylbutanamido)-N-(benzylsulfonyl)-2,5-dimethylhex-2-enamide] | 0.165 |
| CN[C@H](C(=O)N[C@H](C(=O)N(C)[C@H](/C=C(\C)C(=O)NS(=O)(=O)C1CCCCC1)C(C)C)C(C)(C)C)C(C)(C)c1ccccc1 [Compound 44, (S,E)-N-(cyclohexylsulfonyl)-2,5-dimethyl-4-((S)—N,3,3-trimethyl-2-((S)-3-methyl-2-(methylamino)-3-phenylbutanamido)butanamido)hex-2-enamide] | 0.114 |

Same assay, conditions: Homo sapiens, Jurkat, Table 6; Compound Cytotoxicity on Jurkat; read-out: EC50

| Compound | EC50 [nM] |
| --- | --- |
| CN[C@H](C(=O)N[C@H](C(=O)N(C)[C@H](/C=C(\C)C(=O)NS(=O)(=O)c1ccc(OC(F)(F)F)cc1)C(C)C)C(C)(C)C)C(C)(C)c1ccccc1 [Compound 13, (S,E)-2,5-dimethyl-N-(4-(trifluoromethoxy)phenylsulfonyl)-4-((S)—N,3,3-trimethyl-2-((S)-3-methyl-2-(methylamino)-3-phenylbutanamido)butanamido)hex-2-enamide] | 1.51 |
| CCCCC(C)S(=O)(=O)NC(=O)/C(C)=C/[C@H](C(C)C)N(C)C(=O)[C@@H](NC(=O)[C@@H](NC)C(C)(C)c1ccccc1)C(C)(C)C (stereo partly drawn) [Compound 33, (4S,E)-N-(hexan-2-ylsulfonyl)-2,5-dimethyl-4-((S)—N,3,3-trimethyl-2-((S)-3-methyl-2-(methylamino)-3-phenylbutanamido)butanamido)hex-2-enamide] | 0.636 |
| CN[C@H](C(=O)N[C@H](C(=O)N(C)[C@H](/C=C(\C)C(=O)NS(=O)(=O)CC1CCCC1)C(C)C)C(C)(C)C)C(C)(C)c1ccccc1 [Compound 35, (S,E)-N-(cyclopentylmethylsulfonyl)-2,5-dimethyl-4-((S)—N,3,3-trimethyl-2-((S)-3-methyl-2-(methylamino)-3-phenylbutanamido)butanamido)hex-2-enamide] | 0.832 |
| CN[C@H](C(=O)N[C@H](C(=O)N(C)[C@H](/C=C(\C)C(=O)NS(=O)(=O)C1CCCCC1)C(C)C)C(C)(C)C)C(C)(C)c1ccccc1 [Compound 44, (S,E)-N-(cyclohexylsulfonyl)-2,5-dimethyl-4-((S)—N,3,3-trimethyl-2-((S)-3-methyl-2-(methylamino)-3-phenylbutanamido)butanamido)hex-2-enamide] | 1.48 |
